{"source": "patent US20030187017A1", "about": "“Method for treating functional dyspepsia” (priority 2002, published 2003)", "key": {"FD patients [1]": {"system": "FD patients", "test": "12-week double-blind placebo-matched clinical study in FD patients: adequate relief of upper abdominal pain or discomfort and FD symptoms", "assay_type": "in vivo, human", "conditions": "for Average Weekly Adequate Relief of Pain and Discomfort, Adequate Relief Rates: 12 weeks", "experimental": "Three hundred and twenty (320) ambulatory outpatient male and female FD patients at least 18 years of age who have chronic or recurrent abdominal pain or discomfort centered in the upper abdomen were randomised for study comprising twelve (12) weeks of treatment: eighty one (81) were randomised to treatment with placebo BID, seventy seven (77) to 0.5 mg BID alosetron, seventy nine (79) to 1 mg BID alosetron, and eighty three (83) to 2 mg BID alosetron. Study participants included patients who have been diagnosed with FD and patients with symptoms that fulfilled the modified Rome criteria for FD for at least 6 months. Study participants were screened for two weeks prior to the testing phase, to confirm symptoms of sufficient severity for participation in the study. During the two-week screening period, those patients enrolled from the U.S. underwent a 90-minute gastric emptying test to characterize their gastric motility. At the end of the two-week period, all study participants underwent an esophagogastroduodenoseope (EGD) to rule out organic disease and obtain a biopsy for H. pylori within one month of screening. The study was double-blinded and placebo-matched. Eligible subjects were randomized (1:1:1:1 ratio) to either alosetron 0.5 mg, 1 mg, 2 mg, or matched placebo twice daily for a 12-week treatment phase followed by a one-week follow-up period. Laboratory evaluations and adverse events were recorded at the 4, 8 and 12-week (or final) treatment visits. The study was designed to elicit measurements relating to efficacy and safety. The primary endpoint was adequate relief of FD (upper abdominal) pain or discomfort. Secondary endpoints included 1) changes in daily upper abdominal pain severity ratings, 2) proportion of pain free days, 3) changes in self-ratings of nausea, early satiety, bloating or distension, post-prandial fullness and burping or belching, 4) changes in quality of life (QOL) SF-36 scores, 5) changes in SCL-90R® scores, and 6) safety and tolerability with respect to the incidence of adverse events and changes in laboratory values. Daily and weekly symptom data were collected using an electronic touch-tone telephone based system described in J. Harding, et al., Gastroenterology 112:[…] (1997); and J. Harding, et al., Aliment Pharm. Ther. 11:1073-761997. Severity of abdominal pain, nausea and bloating were assessed on a daily basis using a five point scale (0=none; 1=very mild; 2=mild; 3=moderate; 4=severe). During screening, the pain severity score was required to average ≧1.5 for entry into the study. During the treatment and follow-up phases, subjects were asked weekly if they had obtained adequate relief of their upper abdominal pain or discomfort during the previous 7 days. Subjects also responded daily to yes/no questions assessing whether early satiety, post-prandial fullness and burping or belching were present. Analyses were by Intent-to-Treat (ITT) using the last observation carried forward (LOCF) method for handling missing data. The ITT population included all subjects randomized to study treatment. The primary efficacy endpoint was the adequate relief of upper abdominal pain or discomfort. The 12-week average rate of adequate relief was calculated as the sum of the number of responses of “yes” over the 12 weeks of the treatment phase divided by 12 and multiplied by 100 using the LOCF approach. The proportion of patients with weekly adequate relief of upper abdominal pain or discomfort was compared between treatment groups using the Mantel-Haenszel test stratified by geographical clusters of treatment centers. Secondary efficacy measures included subject self-rating of pain severity, frequency and the FD symptoms of nausea, bloating/distension, burping/belching, early satiety and post-prandial fullness. […]"}, "FD patients [2]": {"system": "FD patients", "test": "Adverse events in the 12-week clinical study in FD patients", "assay_type": "in vivo, human", "experimental": "The study was double-blinded and placebo-matched. Eligible subjects were randomized (1:1:1:1 ratio) to either alosetron 0.5 mg, 1 mg, 2 mg, or matched placebo twice daily for a 12-week treatment phase followed by a one-week follow-up period. Laboratory evaluations and adverse events were recorded at the 4, 8 and 12-week (or final) treatment visits.\nAdverse events were coded and group by body system. Adverse events occurring after randomization were summarized separately from adverse events occurring during the screening phase. For each body system and over all body systems, the frequency of subjects reporting at least one adverse event was calculated by treatment group. In addition, the number of subjects reporting at least one drug-related adverse event and the number of subjects reporting serious adverse events were summarized by treatment group. The four treatment groups were compared using a correlation chi-square test; pairwise comparisons were made with Fisher's exact test."}, "healthy subjects": {"system": "healthy subjects", "conditions": "isobarometric and isovolumetric gastric distensions; cited from earlier work"}, "[3]": {"system": "FD patients and healthy controls", "conditions": "cited from earlier work"}}, "data": [{"molecule": "Cc1[nH]cnc1CN1CCc2c(c3ccccc3n2C)C1=O", "note": "[Alosetron, 2,3,4,5-tetrahydro-5-methyl-2-[(5-methyl-1H-imidazol-4-yl)methyl]-1H-pyrido[4,3-b]indol-1-one]", "values": [{"measurement": "Average Weekly Adequate Relief, % with Adequate Relief", "setting": "FD patients [1]; Abnormal gastric emptying (n = 14-16), 0.5 mg BID", "value": 51, "unit": "%"}, {"measurement": "Average Weekly Adequate Relief, % with Adequate Relief", "setting": "FD patients [1]; Abnormal gastric emptying (n = 14-16), 1 mg BID", "value": 59, "unit": "%"}, {"measurement": "Average Weekly Adequate Relief, % with Adequate Relief", "setting": "FD patients [1]; Abnormal gastric emptying (n = 14-16), 2 mg BID", "value": 45, "unit": "%"}, {"measurement": "Abdominal pain and discomfort", "setting": "FD patients [1]; FD patients, particularly female FD patients", "value": "substantially improved"}, {"measurement": "Average Weekly Adequate Relief of Pain and Discomfort, Adequate Relief Rates", "setting": "FD patients [1]; Females (n = 50-60), 0.5 mg BID", "value": 49}, {"measurement": "Average Weekly Adequate Relief of Pain and Discomfort, Adequate Relief Rates", "setting": "FD patients [1]; Females (n = 50-60), 1 mg BID", "value": 54}, {"measurement": "Average Weekly Adequate Relief of Pain and Discomfort, Adequate Relief Rates", "setting": "FD patients [1]; Females (n = 50-60), 2 mg BID", "value": 43}, {"measurement": "Average Weekly Adequate Relief of Pain and Discomfort, Adequate Relief Rates", "setting": "FD patients [1]; Males (n = 20-33), 0.5 mg BID", "value": 39}, {"measurement": "Average Weekly Adequate Relief of Pain and Discomfort, Adequate Relief Rates", "setting": "FD patients [1]; Males (n = 20-33), 1 mg BID", "value": 43}, {"measurement": "Average Weekly Adequate Relief of Pain and Discomfort, Adequate Relief Rates", "setting": "FD patients [1]; Males (n = 20-33), 2 mg BID", "value": 40}, {"measurement": "Average Weekly Adequate Relief, % with Adequate Relief", "setting": "FD patients [1]; Normal gastric emptying (n = 32-34), 0.5 mg BID", "value": 60, "unit": "%"}, {"measurement": "Average Weekly Adequate Relief, % with Adequate Relief", "setting": "FD patients [1]; Normal gastric emptying (n = 32-34), 1 mg BID", "value": 56, "unit": "%"}, {"measurement": "Average Weekly Adequate Relief, % with Adequate Relief", "setting": "FD patients [1]; Normal gastric emptying (n = 32-34), 2 mg BID", "value": 43, "unit": "%"}, {"measurement": "Improvement in adequate relief by gastric emptying status", "setting": "FD patients [1]; all doses, subjects with normal and subjects with abnormal gastric emptying", "value": "Improvement was observed for all doses"}, {"measurement": "Adequate relief rate as compared with placebo", "setting": "FD patients [1]; each dose (0.5, 1, 2 mg BID)", "value": "greater adequate relief rate as compared with placebo"}, {"measurement": "Nausea, early satiety and post-prandial fullness", "setting": "FD patients [1]; female patients and patients with normal gastric emptying", "value": "substantially improved"}, {"measurement": "Adverse Events: Any event", "setting": "FD patients [2]; 0.5 mg BID", "value": 68, "unit": "%"}, {"measurement": "Adverse Events: GI event", "setting": "FD patients [2]; 0.5 mg BID", "value": 58, "unit": "%"}, {"measurement": "Adverse Events: Neurology", "setting": "FD patients [2]; 0.5 mg BID", "value": 9, "unit": "%"}, {"measurement": "Adverse Events: constipation", "setting": "FD patients [2]; 0.5 mg BID", "value": 45, "unit": "%"}, {"measurement": "Adverse Events: Any event", "setting": "FD patients [2]; 1 mg BID", "value": 68, "unit": "%"}, {"measurement": "Adverse Events: GI event", "setting": "FD patients [2]; 1 mg BID", "value": 52, "unit": "%"}, {"measurement": "Adverse Events: Neurology", "setting": "FD patients [2]; 1 mg BID", "value": 4, "unit": "%"}, {"measurement": "Adverse Events: constipation", "setting": "FD patients [2]; 1 mg BID", "value": 34, "unit": "%"}, {"measurement": "Adverse Events: Any event", "setting": "FD patients [2]; 2 mg BID", "value": 75, "unit": "%"}, {"measurement": "Adverse Events: GI event", "setting": "FD patients [2]; 2 mg BID", "value": 63, "unit": "%"}, {"measurement": "Adverse Events: Neurology", "setting": "FD patients [2]; 2 mg BID", "value": 16, "unit": "%"}, {"measurement": "Adverse Events: constipation", "setting": "FD patients [2]; 2 mg BID", "value": 46, "unit": "%"}, {"measurement": "Tolerability", "setting": "FD patients [2]; FD patients", "value": "well-tolerated"}, {"measurement": "Visceral perception scores", "setting": "healthy subjects", "value": "effect similar to placebo"}]}, {"molecule": "CN1[C@@H]2CC[C@H]1C[C@@H](OC(=O)c1c[nH]c3ccccc13)C2", "note": "[tropisetron]", "values": [{"measurement": "Gastric accommodation, reflex relaxation or gastric sensitivity", "setting": "[3]", "value": "did not influence"}]}]}
